In paper PMC5443783, “Prostaglandin E2 glyceryl ester is an endogenous agonist of the nucleotide receptor P2Y6” (Scientific Reports, 2017):
“And” between values parts separate entries of the source, which are not always exact repeats. Equal values may be shown once. “Also recorded” adds a separate entry of the source.

Experiments:
P2Y6 Y262 to alanine = biological target: T1, P2Y6 Y262 to alanine (Homo sapiens, UniProt Q15077, Y262A); test: IP1 accumulation assay, mutant P2Y6 Y262A; format: cell-based; settings: Fig. 6d
T1 construct: expressed in transfected cells; host or cells: HEK293
T1 sequence (Q15077 whole entry Y262A): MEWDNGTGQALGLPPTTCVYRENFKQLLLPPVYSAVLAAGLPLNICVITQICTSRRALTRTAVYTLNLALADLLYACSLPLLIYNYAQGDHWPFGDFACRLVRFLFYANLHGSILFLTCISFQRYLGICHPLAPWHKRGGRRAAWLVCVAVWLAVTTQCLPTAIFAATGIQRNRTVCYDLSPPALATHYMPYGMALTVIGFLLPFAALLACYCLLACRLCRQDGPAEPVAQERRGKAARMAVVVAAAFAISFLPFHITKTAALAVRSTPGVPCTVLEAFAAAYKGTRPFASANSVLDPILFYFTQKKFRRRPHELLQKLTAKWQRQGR
Source text: (§1) cDNA from H1819 cells was used to amplify and clone the P2RY6 and CNR2 coding sequences. They were double-tagged with an N-terminal HA epitope and a C-terminal FLAG epitope and, for transient transfection, introduced into the mammalian expression vector pcDps[56]. All mutant constructs were generated by a PCR-based site-directed mutagenesis and fragment replacement strategy. For stable transfection, P2RY6 was sub-cloned into the pIRES-eGFP vector (CLONTECH Laboratories, USA). All constructs were verified by sequencing.
To measure intracellular IP3 the HitHunter® Inositol (1,4,5) Triphosphate Assay (DiscoveRx, USA) was used according to manufacturer′s protocol. HEK293 cells stably transfected with hP2RY6 were seeded in a 384-well Black microtiter plate (15,000 cells/well) (Greiner Bio One, Germany) and incubated with indicated concentrations of UDP and PGE2-G for 20 seconds. Reaction was stopped by adding 5 µl 0.2 N perchloric acid and measurement of IP3 was performed with the Fusion AlphaScreen multilabel reader (PerkinElmer Life Sciences) according to manufacturer′s protocol. To measure IP1, HEK293 cells expressing wildtype and mutant P2Y6 were seeded into 384-well plates (5,000 cells/well) 24 h prior assay. After aspiration of the medium, cells were incubated with indicated concentrations of agonists/antagonist for 1 h. […]

H1819 cells = test: Intracellular Ca2+ measurement in H1819 cells; format: cell-based, human
Description: (§2) For fluorometric measurements of intracellular Ca^2+ levels with the FlexStationII instrument (Molecular Devices), RAW264.7 and H1819 cells were seeded into 96-well plates (3.0 × 10^4 cells/well) 24 h prior to assay. Ca^2+ measurements with transiently transfected HEK293 cells were performed 48 h after transfection. Cells were loaded with 200 µl Calcium 5 reagent (Explorer Kit, Molecular Devices, USA) for 60 min at 37 °C, and the assay was performed as described. Agonists and inhibitors were solved in DMSO (100x) and diluted […] in 96-well compound plates containing HBSS. 50 µl of compound solution were added to the assay plate resulting in final concentration of 1% DMSO. Fold-response was calculated by RFUmax − RFUmin (ligand)/RFUmax − RFUmin (vehicle). EC50 values were calculated by using GraphPad Prism6 software (GraphPad, USA).

P2Y6 F252A = biological target: T2, P2Y6 F252A (Homo sapiens, UniProt Q15077, F252A); test: IP1 accumulation assay, mutant P2Y6 F252A; format: cell-based; settings: for IP1 formation at mutant receptor: Fig. 6d
T2 construct: expressed in transfected cells; host or cells: HEK293
T2 sequence (Q15077 whole entry F252A): as the sequence (Q15077 whole entry Y262A) above, with F252A, A262Y counted along it
Source text: as §1
To measure intracellular IP3 the HitHunter® Inositol (1,4,5) Triphosphate Assay (DiscoveRx, USA) was used according to manufacturer′s protocol. HEK293 cells stably transfected with hP2RY6 were seeded in a 384-well Black microtiter plate (15,000 cells/well) (Greiner Bio One, Germany) and incubated with indicated concentrations of UDP and PGE2-G for 20 seconds. Reaction was stopped by adding 5 µl 0.2 N perchloric acid and measurement of IP3 was performed with the Fusion AlphaScreen multilabel reader (PerkinElmer Life Sciences) according to manufacturer′s protocol. To measure IP1, HEK293 cells expressing wildtype and mutant P2Y6 were seeded into 384-well plates (5,000 cells/well) 24 h prior assay. After aspiration of the medium, cells were incubated with indicated concentrations of agonists/antagonist for 1 h. IP1 measurements using the IP-one HTFR® assay kit (Cisbio assays, USA) were performed according to manufacturer′s protocol. The assays were performed with a final concentration of 1% DMSO.

P2Y6 [1] = biological target: T3, P2Y6 (Homo sapiens, UniProt Q15077); test: Intracellular Ca2+ measurement in HEK293 cells transfected with P2RY6; format: cell-based; design: expressed in transfected cells; host or cells: HEK293; settings: for effect on cytosolic Ca2+ levels: HEK293 transiently transfected with P2RY6, concentration-dependent
T3 sequence (Q15077 whole entry): as the sequence (Q15077 whole entry Y262A) above, with A262Y counted along it
Description: RAW264.7 cells were grown in DMEM supplemented with 10% FBS, A7r5 (rat […]) cells in DMEM with 10% FBS, and A431 (human squamous carcinoma) cells in RPMI supplemented with 10% FBS. All cell lines were grown at 37 °C in a humidified 5% CO2 incubator. For functional assays, receptor constructs were heterologously expressed in human embryonic kidney (HEK293) cells upon transient or stable transfection. Cells were grown in DMEM/F12 supplemented with 10% FBS, 100 units/ml penicillin, and 100 µg/ml streptomycin. For the cAMP-inhibition assay, ERK1/2 phosphorylation assay, and Ca^2+ mobilization assay, cells were split into 96-well plates (2.0 × 10^4 cells/well) and transfected with 250 ng vector construct using MACSfectin™ (Miltenyi Biotec, Germany) according to manufacturer’s protocol. Empty vector (mock) served as the negative control. For siRNA experiments, cells were seeded in 6-well plates (4.0 × 10^5 and 6.0 × 10^5 cells/well for RAW264.7 and H1819, respectively). RAW264.7 and H1819 cells were transfected with 150 pMol of mP2RY6 siRNA and hP2RY6 siRNA (Santa Cruz Biotechnology, USA), respectively, using Viromer® Blue (Lipocalyx, Germany). As a negative control, control siRNA-A (Santa Cruz Biotechnology, USA) was used. FITC-labelled siRNA served as a transfection control.
To generate a cell line stably expressing P2Y6, HEK293 cells were seeded in 6-well plates (7.5 × 10^5 cells/well) and transfected with 3 µg vector using MACSfectin™ as transfection regent according to the manufacturer’s protocol. The pIRES-eGFP vector served as negative control. Stably transfected HEK293 cells were cultured in the presence of geneticin (500 µg/ml) for selection.
as §2

[2] = biological target: T4, human TSH receptor (TSHR) (Homo sapiens, UniProt P16473); test: Cell surface expression of TSH receptor, cell surface ELISA; format: cell-based; settings: HEK293 transfected with HA-tagged human TSHR, Fig. 5e
T4 construct: HA tag (N); expressed in transfected cells; host or cells: HEK293
T4 sequence (P16473 21-764): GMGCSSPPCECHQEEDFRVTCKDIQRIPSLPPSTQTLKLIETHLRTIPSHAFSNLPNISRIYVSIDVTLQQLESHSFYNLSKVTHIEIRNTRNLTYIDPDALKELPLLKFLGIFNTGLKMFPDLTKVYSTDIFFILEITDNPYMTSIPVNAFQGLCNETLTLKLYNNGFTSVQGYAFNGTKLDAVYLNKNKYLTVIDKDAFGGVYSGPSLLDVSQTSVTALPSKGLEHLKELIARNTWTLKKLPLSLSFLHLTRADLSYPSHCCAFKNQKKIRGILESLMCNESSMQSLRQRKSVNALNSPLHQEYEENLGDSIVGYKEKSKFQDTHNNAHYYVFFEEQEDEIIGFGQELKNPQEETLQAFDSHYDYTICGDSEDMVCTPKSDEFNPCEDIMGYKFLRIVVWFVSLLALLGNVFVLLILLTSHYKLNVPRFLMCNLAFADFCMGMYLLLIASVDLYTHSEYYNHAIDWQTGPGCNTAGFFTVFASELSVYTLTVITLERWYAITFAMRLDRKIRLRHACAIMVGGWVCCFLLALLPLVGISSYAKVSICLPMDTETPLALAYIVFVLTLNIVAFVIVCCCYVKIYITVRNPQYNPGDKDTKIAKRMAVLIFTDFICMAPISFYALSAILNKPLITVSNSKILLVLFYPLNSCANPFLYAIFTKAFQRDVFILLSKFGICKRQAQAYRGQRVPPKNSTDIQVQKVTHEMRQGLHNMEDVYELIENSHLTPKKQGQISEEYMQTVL
Description: (§3) To estimate cell surface expression of heterologously expressed receptors carrying an N-terminal HA tag, an indirect cellular ELISA was used[57]. To determine the endogenous cell surface expression of P2Y6, the same ELISA procedure was performed with minor modifications. Briefly, after 4% paraformaldehyde fixation and blocking with 10% FBS, cells were incubated with the primary anti-P2Y6 antibody (sc-15215; Santa Cruz Biotechnology, USA) in 1:1,000 dilution for 1 h. After washing with PBS, cells were incubated with peroxidase-conjugated secondary antibody anti-goat IgG (sc-2020, Santa Cruz Biotechnology, USA) in 1:5,000 dilutions.

P2Y6 [3] = biological target: T3, P2Y6; test: Functional readouts at P2Y6, summary statements; format: cell-based; settings: for EC50: summary value
P2Y6 [4] = biological target: T3, P2Y6; test: Agonist-induced receptor internalization, cell surface ELISA; format: cell-based; design: expressed in transfected cells; host or cells: HEK293; settings: HEK293 transiently transfected with hP2RY6, time-dependent, Fig. 5e
Description: as §3

HEK293 cells = test: Intracellular Ca2+ measurement in non-transfected HEK293 cells; format: cell-based, human; settings: for effect on intracellular Ca2+: non-transfected HEK293 cells
Description: as §2

[5] = HEK293 transiently transfected with P2RY6, Fig. 2b, read-out: EC50, intracellular Ca2+

Molecule	IP1 formation at mutant receptor (P2Y6 Y262 to alanine)	EC50 (H1819 cells; Fig. 1d, read-out: EC50, intracellular Ca2+ release) [nM]	EC50 (P2Y6 F252A; Fig. 6e) [nM]	IP1 formation at mutant receptor (P2Y6 F252A)	EC50 (P2Y6 [1]; HEK293 stably transfected with P2RY6, Fig. 5, read-out: EC50, Ca2+ mobilization assay) [nM]	EC50 (P2Y6 [1]; [5])	effect on cytosolic Ca2+ levels (P2Y6 [1])	effect on cell surface expression of the TSH receptor [2]	EC50 (P2Y6 [3]) [nM]	agonist-induced internalization of P2Y6 (cell surface expression) (P2Y6 [4])	effect on intracellular Ca2+ (HEK293 cells)	Maximum RFU for PGE2-G (H1819 cells; control (1% DMSO) 5,247 ± 2,016)	ratio of EC50 values UDP / PGE2-G (P2Y6 [1]; Ca2+ measurements in transfected HEK cells, Fig. 2b)	Emax values (P2Y6 [3]; most functional assays, Figs 3a–c and 6a)	Maximum RFU for PGE2-G (HEK293 cells; HEK293 cells, control (1% DMSO) 2,106 ± 1,193)
O=c1ccn([C@@H]2O[C@H](COP(=O)(O)OP(=O)(O)O)[C@@H](O)[C@H]2O)c(=O)[nH]1 [UDP]	significantly reduced activity	25.9 ± 2.8	12.7 ± 2.1	efficacy remained unchanged	57.1 ± 2.5	78.3 ± 6.7 nM	increased the cytosolic Ca^2+ levels	no effect	~50	cell surface expression levels of P2Y6 were reduced; also recorded: induced a time-dependent internalization	no effect	–	–	–	–
Prostaglandin E2 glyceryl ester [PGE2-G]	fully activated	–	–	loss of PGE2-G-induced IP1 formation	–	~0.001 nM and 0.0012 nM	increased the cytosolic Ca^2+ levels	no effect	~0.001	cell surface expression levels of P2Y6 were reduced; also recorded: induced a time-dependent internalization	no effect	13,143 ± 2,157 RFU	~ 65,000	slightly lower compared to UDP	2,193 ± 252 RFU
